Source: the NIST ThermoML archive (doi:10.1016/j.tca.2016.05.007)
± gives the expanded uncertainty stated by the source.

Experiment: molar heat capacity at constant pressure
Conditions: 101.33 kPa, Small (less than 1 g) adiabatic calorimetry

COc1ccc(C2(c3ccc(OC)c(C)c3)OC(=O)c3ccccc32)cc1C [3,3-bis(4-methoxy-3-methylphenyl)-1(3H)-isobenzofuranone]
Conditions	molar heat capacity at constant pressure [J/K/mol]
230.46 K, Glass	366.31 ± 1.4
230.47 K, Crystal	359.41 ± 1.4
232.95 K, Glass	369.75 ± 1.4
233.14 K, Crystal	362.97 ± 1.4
235.43 K, Glass	373.33 ± 1.4
235.82 K, Crystal	366.8 ± 1.4
237.94 K, Glass	377.18 ± 1.4
238.52 K, Crystal	370.5 ± 1.4
240.46 K, Glass	380.87 ± 1.4
241.23 K, Crystal	373.97 ± 1.4
243.01 K, Glass	384.18 ± 1.4
243.95 K, Crystal	377.59 ± 1.4
245.58 K, Glass	387.76 ± 1.5
246.68 K, Crystal	381.22 ± 1.4
248.17 K, Glass	391.43 ± 1.5
249.42 K, Crystal	384.68 ± 1.4
250.78 K, Glass	395.34 ± 1.5
252.17 K, Crystal	388.51 ± 1.5
253.42 K, Glass	399.08 ± 1.5
254.94 K, Crystal	392.35 ± 1.5
256.07 K, Glass	402.8 ± 1.5
257.72 K, Crystal	395.86 ± 1.5
258.74 K, Glass	406.86 ± 1.5
260.51 K, Crystal	399.92 ± 1.5
261.44 K, Glass	410.9 ± 1.5
263.31 K, Crystal	403.6 ± 1.5
264.16 K, Glass	414.85 ± 1.6
266.12 K, Crystal	407.84 ± 1.5
266.89 K, Glass	419.34 ± 1.6
268.94 K, Crystal	412.03 ± 1.6
269.65 K, Glass	423.9 ± 1.6
271.78 K, Crystal	417 ± 1.6
272.43 K, Glass	428.57 ± 1.6
274.62 K, Crystal	419.54 ± 1.6
275.22 K, Glass	431.8 ± 1.6
277.48 K, Crystal	423.7 ± 1.6
278.04 K, Glass	436.42 ± 1.6
280.36 K, Crystal	427.79 ± 1.6
280.88 K, Glass	440.97 ± 1.6
282.95 K, Crystal	430.44 ± 1.6
283.74 K, Glass	445.62 ± 1.7
285.84 K, Crystal	434.94 ± 1.6
286.62 K, Glass	450.63 ± 1.7
288.75 K, Crystal	438.86 ± 1.6
289.52 K, Glass	455.31 ± 1.7
291.64 K, Crystal	442.83 ± 1.6
292.44 K, Glass	460.3 ± 1.7
294.51 K, Crystal	446.52 ± 1.7
